Assay results from ChEMBL document CHEMBL2073821, “Immunohistochemical and functional characterization of pH-dependent intestinal absorption of weak organic acids by the monocarboxylic acid transporter MCT1” (J Pharm Pharmacol, 1999).
One block for each compound: values may come before it. Square brackets hold non-standard residues; d marks the D form. Peptide text beside a SMILES is read from it. Sar = CNCC(=O)O

What was measured:
Type in all cases: functional, cell-based
Details in all cases: MDA-MB-231
[1] = target: T1, Monocarboxylate transporter 1 (Rattus norvegicus) (UniProt P53987); experiment: TP_TRANSPORTER: uptake of D-Lactic Acid at a concentration of 3uM in MCT1-expressing MDA-MB231 cells
T1 sequence (whole entry): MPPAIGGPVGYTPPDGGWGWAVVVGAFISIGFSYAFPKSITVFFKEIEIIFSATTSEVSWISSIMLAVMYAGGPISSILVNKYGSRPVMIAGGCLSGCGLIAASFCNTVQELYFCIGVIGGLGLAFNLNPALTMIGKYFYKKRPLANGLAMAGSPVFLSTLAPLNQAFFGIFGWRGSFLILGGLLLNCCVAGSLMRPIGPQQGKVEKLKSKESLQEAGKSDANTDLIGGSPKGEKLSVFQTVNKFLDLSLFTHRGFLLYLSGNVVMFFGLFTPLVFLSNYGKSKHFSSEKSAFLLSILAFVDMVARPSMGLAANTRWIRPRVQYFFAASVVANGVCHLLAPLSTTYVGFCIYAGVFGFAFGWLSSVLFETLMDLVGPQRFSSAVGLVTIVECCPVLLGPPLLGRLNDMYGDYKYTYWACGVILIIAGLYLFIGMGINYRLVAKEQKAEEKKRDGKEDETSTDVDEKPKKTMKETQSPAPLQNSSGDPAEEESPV

[2] = target: T1, Monocarboxylate transporter 1 (Rattus norvegicus); experiment: TP_TRANSPORTER: uptake of Faropenem at a concentration of 76uM in MCT1-expressing MDA-MB231 cells
[3] = target: T1, Monocarboxylate transporter 1 (Rattus norvegicus); experiment: TP_TRANSPORTER: uptake of Glutamic acid at a concentration of 0.01uM in MCT1-expressing MDA-MB231 cells
[4] = target: T1, Monocarboxylate transporter 1 (Rattus norvegicus); experiment: TP_TRANSPORTER: uptake of Butyric acid at a concentration of 137uM in MCT1-expressing MDA-MB231 cells
[5] = target: T1, Monocarboxylate transporter 1 (Rattus norvegicus); experiment: TP_TRANSPORTER: uptake of Propionic acid at a concentration of 7uM in MCT1-expressing MDA-MB231 cells
[6] = target: T1, Monocarboxylate transporter 1 (Rattus norvegicus); experiment: TP_TRANSPORTER: uptake of P-Aminohippuric acid at a concentration of 9uM in MCT1-expressing MDA-MB231 cells
[7] = target: T1, Monocarboxylate transporter 1 (Rattus norvegicus); experiment: TP_TRANSPORTER: uptake of Methotrexate at a concentration of 0.03uM in MCT1-expressing MDA-MB231 cells
[8] = target: T1, Monocarboxylate transporter 1 (Rattus norvegicus); experiment: TP_TRANSPORTER: uptake of Glycylsarcosine at a concentration of 17uM in MCT1-expressing MDA-MB231 cells
[9] = target: T1, Monocarboxylate transporter 1 (Rattus norvegicus); experiment: TP_TRANSPORTER: uptake of Valproic acid at a concentration of 19uM in MCT1-expressing MDA-MB231 cells
[10] = target: T1, Monocarboxylate transporter 1 (Rattus norvegicus); experiment: TP_TRANSPORTER: uptake of Foscarnet at a concentration of 3uM in MCT1-expressing MDA-MB231 cells
[11] = target: T1, Monocarboxylate transporter 1 (Rattus norvegicus); experiment: TP_TRANSPORTER: uptake of Mevalonic acid at a concentration of 67uM in MCT1-expressing MDA-MB231 cells

SMILES: C[C@@H](O)C(=O)O
- Activity [1]: substrate [+]

SMILES: C[C@@H](O)[C@H]1C(=O)N2C(C(=O)O)=C([C@H]3CCCO3)S[C@H]12
- Activity [2]: is not a substrate [-]

SMILES: CCCC(=O)O
- Activity [4]: substrate [+]

SMILES: CCC(=O)O
- Activity [5]: substrate [+]

SMILES: CN(Cc1cnc2nc(N)nc(N)c2n1)c1ccc(C(=O)N[C@@H](CCC(=O)O)C(=O)O)cc1
- Activity [7]: is not a substrate [-]

SMILES: CN(CC(=O)O)C(=O)CN (H-Gly-[Sar]-OH)
- Activity [8]: is not a substrate [-]

SMILES: CCCC(CCC)C(=O)O
- Activity [9]: is not a substrate [-]

SMILES: O=C(O)P(=O)(O)O
- Activity [10]: substrate [+]

Other lines, results leading:

- Activity [3]: is not a substrate [-]
SMILES: N[C@@H](CCC(=O)O)C(=O)O

- Activity [6]: is not a substrate [-]
SMILES: Nc1ccc(C(=O)NCC(=O)O)cc1

- Activity [11]: is not a substrate [-]
SMILES: C[C@@](O)(CCO)CC(=O)O
